Laboratory results reported in BindingDB's records for doi:10.1021/jm060732n (Mcgill University, 2006).

Experiment: Inhibition of Enterococcus faecium AAC(6')Ii

Row | Structure (SMILES) | Ki [nM]
1 | CC(C)(COP(=O)(O)OP(=O)(O)OC[C@H]1O[C@@H](n2cnc3c(N)ncnc32)[C@H](O)[C@@H]1OP(=O)(O)O)[C@@H](O)C(=O)NCCC(=O)NCCSCC(=O)NC[C@H]1O[C@H](O[C@H]2[C@H](O)[C@@H](O[C@H]3O[C@H](CO)[C@@H](O)[C@H](O)[C@H]3O[C@@H]3O[C@H](CO)[C@@H](O)[C@H]3O)[C@H](N)C[C@@H]2N)[C@H](N)[C@@H](O)[C@@H]1O [truncated aminoglycoside-coenzyme A bisubstrate analogue 3] | 119
2 | CC(C)(COP(=O)(O)OP(=O)(O)OC[C@H]1O[C@@H](n2cnc3c(N)ncnc32)[C@H](O)[C@@H]1OP(=O)(O)O)[C@@H](O)C(=O)NCCC(=O)NCCSCCC(=O)NC[C@H]1O[C@H](O[C@H]2[C@H](O)[C@@H](O)[C@H](N)C[C@@H]2N)[C@H](N)[C@@H](O)[C@@H]1O [truncated aminoglycoside-coenzyme A bisubstrate analogue 1b] | 43
3 | CC(C)(COP(=O)(O)OP(=O)(O)OC[C@H]1O[C@@H](n2cnc3c(N)ncnc32)[C@H](O)[C@@H]1OP(=O)(O)O)[C@@H](O)C(=O)NCCC(=O)NCCSCC(=O)NC[C@H]1O[C@H](O[C@H]2[C@H](O)[C@@H](O)[C@H](N)C[C@@H]2N)[C@H](N)[C@@H](O)[C@@H]1O [[(2R,3S,4R,5R)-5-(6-amino-9H-purin-9-yl)-4-hydroxy-3-(phosphonatooxy)oxolan-2-yl]methyl {[(3R)-3-({2-[(2-{[({[(2R,3S,4R,5R,6R)-5-amino-6-{[(1R,2R,3S,4R,6S)-4,6-diamino-2,3-dihydroxycyclohexyl]oxy}-3,4-dihydroxyoxan-2-yl]methyl}carbamoyl)methyl]sulfanyl}ethyl)carbamoyl]ethyl}carbamoyl)-3-hydroxy-2,2-dimethylpropylphosphonato]oxy}phosphonate] | 76
4 | CC(C)(COP(=O)(O)OP(=O)(O)OC[C@H]1O[C@@H](n2cnc3c(N)ncnc32)[C@H](O)[C@@H]1OP(=O)(O)O)[C@@H](O)C(=O)NCCC(=O)NCCSCCCC(=O)NC[C@H]1O[C@H](O[C@H]2[C@H](O)[C@@H](O)[C@H](N)C[C@@H]2N)[C@H](N)[C@@H](O)[C@@H]1O [truncated aminoglycoside-coenzyme A bisubstrate analogue 1c] | 161
5 | CC(C)(COP(=O)(O)OP(=O)(O)OC[C@H]1O[C@@H](n2cnc3c(N)ncnc32)[C@H](O)[C@@H]1OP(=O)(O)O)[C@@H](O)C(=O)NCCC(=O)NCCSCC(=O)NC[C@H]1O[C@H](O[C@H]2[C@H](O)[C@@H](O[C@H]3O[C@H](CO)[C@@H](O)[C@H](N)[C@H]3O)[C@H](N)C[C@@H]2N)[C@H](O)[C@@H](O)[C@@H]1O | 110
6 | CC(C)(COP(=O)(O)OP(=O)(O)OC[C@H]1O[C@@H](n2cnc3c(N)ncnc32)[C@H](O)[C@@H]1OP(=O)(O)O)[C@@H](O)C(=O)NCCC(=O)NCCSCCCCC(=O)NC[C@H]1O[C@H](O[C@H]2[C@H](O)[C@@H](O)[C@H](N)C[C@@H]2N)[C@H](N)[C@@H](O)[C@@H]1O [[(2R,3S,4R,5R)-5-(6-amino-9H-purin-9-yl)-4-hydroxy-3-(phosphonatooxy)oxolan-2-yl]methyl {[(3R)-3-({2-[(2-{[4-({[(2R,3S,4R,5R,6R)-5-amino-6-{[(1R,2R,3S,4R,6S)-4,6-diamino-2,3-dihydroxycyclohexyl]oxy}-3,4-dihydroxyoxan-2-yl]methyl}carbamoyl)butyl]sulfanyl}ethyl)carbamoyl]ethyl}carbamoyl)-3-hydroxy-2,2-dimethylpropylphosphonato]oxy}phosphonate] | 8000
